Results published in ChEMBL document CHEMBL4052771, “3,5-Bis(3-dimethylaminomethyl-4-hydroxybenzylidene)-4-piperidone and related compounds induce glutathione oxidation and mitochondria-mediated cell death in HCT-116 colon cancer cells” (Bioorg Med Chem Lett, 2017).
The source made the active and inactive calls. No cut-off for these calls is given here.

Experiments:
Liver [1] = assay: Stimulation of mitochondrial respiration in Wistar rat liver […] assessed as oxygen consumption rate at 20 and 25 uM using pyruvate and malate as respiratory substrate after 4 mins; format: functional
HCT-116 [2] = assay: Antiproliferative activity against human HCT116 cells after 48 hrs by sulforhodamine B assay; format: functional; settings: HCT-116, 48 h
Liver [3] = assay: Induction of mitochondrial swelling in Wistar rat liver […] at 0.1 uM after 20 mins in presence of pyruvate and malate by spectroscopic analysis; format: functional
HCT-116 [4] = assay: Induction of mitochondrial membrane potential loss in human HCT116 cells at antiproliferative GI50 after 48 hrs by JC-1 staining based fluorescence assay; format: functional, cell-based
[5] = Cytotoxicity against human CRL1790 cells assessed as reduction in cell viability after 48 hrs by sulforhodamine B assay; format: cell-based; settings: CRL1790 (CCD-841CoN) cells
[6] = Selectivity index, ratio of GI50 for human CRL1790 cells to GI50 for human HCT116 cells; format: functional
HCT-116 [7] = assay: Induction of mitochondrial superoxide generation in human HCT116 cells at antiproliferative GI50 after 60 mins by mitoSOX red-probe based fluorescence assay; format: functional, cell-based
HCT-116 [8] = assay: Induction of glutathione oxidation in human HCT116 cells assessed as increase in GSSG/GSH ratio at 500 uM in presence of NADPH after 48 hrs by Ellman's method; format: functional, cell-based
HCT-116 [9] = assay: Induction of reactive oxygen species generation in human HCT116 cells at antiproliferative GI50 after 60 mins by DCFH-DA probe based assay; format: functional, cell-based
Liver [10] = assay: Stimulation of mitochondrial respiration in Wistar rat liver […] assessed as oxygen consumption rate at 0.1 and 10 uM using pyruvate and malate as respiratory substrate after 4 mins; format: functional

SMILES	Activity (Liver [1])	GI50 (HCT-116 [2])	Activity (Liver [3])	Activity (HCT-116 [4])	GI50 at 48 h [5]	RatioGI50 [6]	Activity (HCT-116 [7])	Activity (HCT-116 [8])	Activity (HCT-116 [9])	Activity (Liver [10])
O=[N+]([O-])c1ccc(O)c([N+](=O)[O-])c1	Active									
COc1cc(/C=C/C(=O)CC(=O)/C=C/c2ccc(O)c(OC)c2)ccc1O [CURCUMIN]		3.5 µM	Active	Active	58.6 µM	16.7	Active	Active	Active	
O=c1[nH]cc(F)c(=O)[nH]1 [FLUOROURACIL]		5.47 µM	inactive		10.3 µM	1.88				inactive
